In one data set the test system is patients. Particulars: cited from earlier work.
Data set [1] concerns rats with alloxan diabetes. Description: Hypoglycemic activity, alloxan diabetes model in rats (Example 1). The format is in vivo, rat. On the procedure: The pharmaceutical compositions for determination of anti-diabetic action had the following composition: active compound—1 g, potato starch—1 g, water—100 ml.
(§1) The comparison of anti-diabetic action of compounds was carried out using a standard model of alloxan diabetes and metmorphin as a comparative drug. The alloxan diabetes was induced by a single subcutaneous injection of water solution of alloxan hydrate (ICN Biomedicals, USA) at a dose of 150 mg/kg to rats weighting 180-200 g that have fasted for 24 hours. The following animal groups were studied: intact rats, diabetic non-treated rats, diabetic rats receiving Polfa-Kutno Ltd.″ metmorphin daily (for 23 days, 200 mg/kg); diabetic rats receiving daily (for 20 days) the abovementioned pharmaceutical compositions containing, as an active components, the compounds described in this invention: MC-200-MC-225. The compounds were administered intragastrically once a day in starch gel at a dose of 50 mg/kg rat weight.
(§2) The experimental drug doses were selected assuming the expected therapeutic doses for man and previously determined toxic doses (LD50 of studied compounds was approximately 500-1,000 mg/kg). The metmorphin dose for rats was extrapolated from the therapeutic dose for man. Drug administration was started on the third day after alloxan injection when blood glucose level increased approximately 3-fold as compared to control value. Each group consisted of 20 animals of both genders.

The test system of data set [2] is white rats with experimental diabetes (alloxan diabetes). Description: Anti-diabetic, hypolipidemic and hypocholesteremic activity, alloxan diabetes model in rats (Example 2). The format is in vivo, rat. Particulars: compounds 50 mg/kg, metmorphin 200 mg/kg daily. On the procedure:
as §1, §2
Pharmaceutical compositions for determination of anti-diabetic action had the same composition as that given in Example I.
The comparison of the anti-diabetic action of compounds was carried out using a standard model of alloxan diabetes, as described in Example I, and metmorphin as a comparative drug.
In the course of experiment, the following parameters were recorded: animal general condition, water consumption, body mass, levels of glucose, total lipids, tri-glycerides, serum blood cholesterol, and glycosylated hemoglobin, using the generally accepted techniques (Laboratory methods of studies in clinical practice, V. V. Menshikov, Ed., Moscow, “Medicine”, 1987).

The subject of data set [3] is pancreatic Langerhans islets of rats with alloxan diabetes. Description: Histological examination of the pancreas of alloxan-diabetic rats (Example 3). Particulars: in 20 days after treatment; for Pancreatic Langerhans islet structure, aldehyde fuchsine staining: magnification 20×7; for Pancreatic Langerhans islet structure, haematoxylin-eosin staining: magnification 40×7. The format is in vivo, rat. Here is the method:
Histological examination of pancreatic structure was carried out using the haematoxylin-eosin and aldehyde fuchsine staining of pancreatic sections using standard techniques.

Where [4] appears, read: diabetic rats' blood, in 10 days, compounds 50 mg/kg intragastrically once a day in starch gel, metmorphin 200 mg/kg daily.
The mark [5] stands for this setting: diabetic rats' blood, in 20 days, compounds 50 mg/kg intragastrically once a day in starch gel, metmorphin 200 mg/kg daily.

Each structure is given as a SMILES string. Where “and” joins values, the source holds several entries; their conditions need not be identical. Equal values may be shown once. Where a name gives a salt, the structure may show the parent alone.

Turning to `CN(CCOc1ccc(CC2SC(=O)NC2=O)cc1)c1ccccn1` (centres unmarked) [Avandia], the “Fatality rate after infarction, higher than untreated group” value with patients (Avandia group as compared to the untreated group) was 64%. For the same molecule, the “Probability of myocardial infarction, higher than untreated group” value in the data set with patients (patients who took Avandia as compared to the untreated group) is 43%.

In the case of `CCOC(=O)c1c(CN2CCCC2)n(C)c2cc(-c3cccnc3)c3c(c12)CN(C)CO3` [MC-213, 9-carbethoxy-2,7-dimethyl-5-pyridine-3-yl-8-[(pyrrolidine-1-yl)methyl]-1,2,3,7-tetrahydro[1,3]oxazino [5,6-e] indole trihydrochloride], in data set [1] (rat, in vivo), the “Glucose content, mmol/l, in 10 days” value is 5.8 ± 0.4 mmol/L and the “Glucose content, mmol/l, in 20 days” value was 5.5 ± 0.3 mmol/L. Further, in data set [2] (in 10 days), the Body mass is given as 185 ± 5 g, the Cholesterol was 2.7 ± 0.5 mmol/L, the Daily water consumption stood at 26 ± 5 mL and the Glucose amounted to 5.8 ± 0.3 mmol/L. In data set [2] (in 10 days), the Glycosylated hemoglobin stood at 6.4 ± 0.3 mol %, the “Percent of survived rats” value came to 90%, the Total lipids came out at 10.5 ± 0.5 g/L and the Tri-glycerides worked out at 2.5 ± 0.3 mmol/L. Besides, the β-lipoproteins in data set [2] (in 10 days) was 2.2 ± 0.2 g/L. Moreover, in data set [2] (in 20 days), the Body mass was found to be 183 ± 10 g, the Cholesterol amounted to 1.5 ± 0.2 mmol/L, the Daily water consumption was 25 ± 6 mL and the Glucose worked out at 5.5 ± 0.3 mmol/L. Moreover, in data set [2] (in 20 days), the Glycosylated hemoglobin worked out at 6.2 ± 0.5 mol %, the “Percent of survived rats” value is 75%, the Total lipids was 10.4 ± 1.0 g/L and the Tri-glycerides stood at 1.7 ± 0.2 mmol/L. Besides, the β-lipoproteins in data set [2] (in 20 days) was found to be 2.1 ± 0.2 g/L.

Turning to `CCOC(=O)c1c(CSc2ccc3ccccc3c2)n(C)c2cc(Br)c(O)c(CN(C)C)c12` [MC-217, 1-methyl-2-β-naphthylthiomethyl-3-carbethoxy-4-dimethylaminomethyl-5-hydroxy-6-bromoindole hydrochloride], in data set [1] (rat, in vivo), the “Glucose content, mmol/l, in 10 days” value came to 5.2 ± 0.2 mmol/L and the “Glucose content, mmol/l, in 20 days” value amounted to 4.8 ± 0.3 mmol/L. In data set [2] (in 10 days), this molecule showed a Body mass of 190 ± 10 g, a Cholesterol of 2.4 ± 0.2 mmol/L, a Daily water consumption of 25 ± 5 mL and a Glucose of 5.2 ± 0.2 mmol/L. Besides, in data set [2] (in 10 days), the Glycosylated hemoglobin is 5.2 ± 0.2 mol %, the “Percent of survived rats” value amounted to 100%, the Total lipids came to 10.4 ± 0.5 g/L and the Tri-glycerides was 2.3 ± 0.2 mmol/L. The same molecule came in with a β-lipoproteins in data set [2] (in 10 days) of 2.1 ± 0.2 g/L. In data set [2] (in 20 days), this molecule showed a Body mass of 185 ± 10 g, a Cholesterol of 1.4 ± 0.2 mmol/L, a Daily water consumption of 22 ± 5 mL and a Glucose of 4.8 ± 0.1 mmol/L. Also, in data set [2] (in 20 days), the Glycosylated hemoglobin is recorded as 4.9 ± 0.3 mol %, the “Percent of survived rats” value is 100%, the Total lipids is 10.2 ± 0.3 g/L and the Tri-glycerides amounted to 1.5 ± 0.2 mmol/L. This molecule also yielded a β-lipoproteins in data set [2] (in 20 days) of 2.1 ± 0.2 g/L. For the same molecule, in data set [3], the “Pancreatic Langerhans islet structure, aldehyde fuchsine staining” value is on record as “Restoration of pancreatic Langerhans islet” and the “Pancreatic Langerhans islet structure, haematoxylin-eosin staining” value is “Restoration of pancreatic Langerhans islet”.

Consider `CCOC(=O)c1c(CSc2ccccc2)n(C)c2cc(Br)c(O)c(CN(C)C)c12` [MC-200, 1-methyl-2-phenylthiomethyl-3-carbethoxy-4-dimethylaminomethyl-5-hydroxy-6-bromoindole hydrochloride], for which the “Glucose content, mmol/l, in 10 days” value in data set [1] (setting [4]) was 5.6 ± 0.2 mmol/L. In addition, the “Glucose content, mmol/l, in 20 days” value in data set [1] (setting [5]) is 5.4 ± 0.3 mmol/L. In data set [2] (in 10 days), this molecule displayed a Body mass of 180 ± 5 g, a Cholesterol of 2.7 ± 0.4 mmol/L, a Daily water consumption of 20 ± 3 mL and a Glucose of 5.6 ± 0.2 mmol/L. Besides, in data set [2] (in 10 days), the Glycosylated hemoglobin amounted to 6.2 ± 0.3 mol %, the “Percent of survived rats” value was determined as 100%, the Total lipids came out at 10.2 ± 0.5 g/L and the Tri-glycerides is 2.5 ± 0.2 mmol/L. The β-lipoproteins in data set [2] (in 10 days) is 2.0 ± 0.2 g/L. In data set [2] (in 20 days), this molecule had a Body mass of 182 ± 10 g, a Cholesterol of 1.5 ± 0.2 mmol/L, a Daily water consumption of 24 ± 6 mL and a Glucose of 5.4 ± 0.3 mmol/L. Besides, in data set [2] (in 20 days), the Glycosylated hemoglobin turned out to be 6.5 ± 05 mol %, the “Percent of survived rats” value was 75%, the Total lipids was found to be 10.6 ± 1.0 g/L and the Tri-glycerides worked out at 1.5 ± 0.2 mmol/L. In data set [2] (in 20 days), this molecule had a β-lipoproteins of 2.1 ± 0.3 g/L. The “Pancreatic Langerhans islet structure, haematoxylin-eosin staining” value in data set [3] is on record as “Restoration of pancreatic Langerhans islet”.

As for `CCOC(=O)c1c(CN2CCCC2)n(C)c2cc(-c3cccnc3)c(O)cc12` [MC-207, 1-methyl-2-pyrrolidinyl-1-methyl-3-carbethoxy-5-hydroxy-6-(pyridine-3-yl)indole], in data set [1] (rat, in vivo), the “Glucose content, mmol/l, in 10 days” value stood at 5.5 ± 0.2 mmol/L and the “Glucose content, mmol/l, in 20 days” value worked out at 5.0 ± 0.3 mmol/L. Besides, in data set [2] (in 10 days), the Body mass is 186 ± 10 g, the Cholesterol was 2.5 ± 0.3 mmol/L, the Daily water consumption came to 24 ± 5 mL and the Glucose is 5.5 ± 0.3 mmol/L. Besides, in data set [2] (in 10 days), the Glycosylated hemoglobin was 5.1 ± 0.3 mol %, the “Percent of survived rats” value is given as 100%, the Total lipids was 10.2 ± 0.5 g/L and the Tri-glycerides was determined as 2.5 ± 0.2 mmol/L. Moreover, the β-lipoproteins in data set [2] (in 10 days) turned out to be 2.0 ± 0.2 g/L. Moreover, in data set [2] (in 20 days), the Body mass was found to be 182 ± 10 g, the Cholesterol stood at 1.5 ± 0.2 mmol/L, the Daily water consumption was 20 ± 5 mL and the Glucose amounted to 5.0 ± 0.2 mmol/L. Also, in data set [2] (in 20 days), the Glycosylated hemoglobin stood at 5.0 ± 0.3 mol %, the “Percent of survived rats” value amounted to 90%, the Total lipids worked out at 10.2 ± 0.3 g/L and the Tri-glycerides was 1.8 ± 0.2 mmol/L. In data set [2] (in 20 days), this molecule returned a β-lipoproteins of 2.1 ± 0.2 g/L.

Consider `CN(C)C(=N)N=C(N)N` [Metmorphin, reference compound], for which, in data set [1] (setting [4]), the “Glucose content, mmol/l, in 10 days” value turned out to be 6.6 ± 0.3 mmol/L. Besides, the “Glucose content, mmol/l, in 20 days” value in data set [1] (setting [5]) was 6.4 ± 0.3 mmol/L. Moreover, in data set [2] (in 10 days), the Body mass is listed as 185 ± 5 g; the Cholesterol is 2.6 ± 0.3 mmol/L and 2.4 ± 0.3 mmol/L; the Daily water consumption came to 25 ± 3 mL; the Glucose is 6.6 ± 0.3 mmol/L and 6.4 ± 0.3 mmol/L. For the same molecule, in data set [2] (in 10 days), the Glycosylated hemoglobin is 5.1 ± 0.1 mol % and 5.0 ± 0.1 mol %; the “Percent of survived rats” value is 100%; the Total lipids is 10.6 ± 0.6 g/L and 10.5 ± 0.5 g/L; the Tri-glycerides came to 2.6 ± 0.1 mmol/L. Also, in data set [2] (in 10 days), the β-lipoproteins is 2.2 ± 0.3 g/L and 2.2 ± 0.4 g/L. Besides, in data set [2] (in 20 days), the Body mass was determined as 180 ± 5 g; the Cholesterol is 1.7 ± 0.3 mmol/L and 1.6 ± 0.3 mmol/L; the Daily water consumption was 20 ± 3 mL and 19 ± 3 mL; the Glucose was 6.4 ± 0.2 mmol/L and 6.3 ± 0.2 mmol/L. For the same molecule, in data set [2] (in 20 days), the Glycosylated hemoglobin is 6.2 ± 0.2 mol % and 6.1 ± 0.2 mol %; the “Percent of survived rats” value is 80%; the Total lipids is 11.6 ± 1.2 g/L and 11.5 ± 1.0 g/L; the Tri-glycerides was 1.6 ± 0.1 mmol/L and 1.6 ± 0.2 mmol/L. For the same molecule, the β-lipoproteins in data set [2] (in 20 days) is 2.2 ± 0.3 g/L and 2.2 ± 0.4 g/L. Besides, in data set [3], the “Pancreatic Langerhans islet structure, aldehyde fuchsine staining” value is “Restoration of pancreatic Langerhans islet” and the “Pancreatic Langerhans islet structure, haematoxylin-eosin staining” value is listed as “Restoration of pancreatic Langerhans islet”.

Source of the values: US8247407B2, priority 2007, dated 2012).
